Biological target: RNA cytosine C(5)-methyltransferase NSUN2 (Homo sapiens) (UniProt Q08J23)
Experiment: Binding affinity to human NSUN2 assessed as ratio of kinact/Ki

RNA cytosine C(5)-methyltransferase NSUN2 (Homo sapiens), sequence (Q08J23 whole entry): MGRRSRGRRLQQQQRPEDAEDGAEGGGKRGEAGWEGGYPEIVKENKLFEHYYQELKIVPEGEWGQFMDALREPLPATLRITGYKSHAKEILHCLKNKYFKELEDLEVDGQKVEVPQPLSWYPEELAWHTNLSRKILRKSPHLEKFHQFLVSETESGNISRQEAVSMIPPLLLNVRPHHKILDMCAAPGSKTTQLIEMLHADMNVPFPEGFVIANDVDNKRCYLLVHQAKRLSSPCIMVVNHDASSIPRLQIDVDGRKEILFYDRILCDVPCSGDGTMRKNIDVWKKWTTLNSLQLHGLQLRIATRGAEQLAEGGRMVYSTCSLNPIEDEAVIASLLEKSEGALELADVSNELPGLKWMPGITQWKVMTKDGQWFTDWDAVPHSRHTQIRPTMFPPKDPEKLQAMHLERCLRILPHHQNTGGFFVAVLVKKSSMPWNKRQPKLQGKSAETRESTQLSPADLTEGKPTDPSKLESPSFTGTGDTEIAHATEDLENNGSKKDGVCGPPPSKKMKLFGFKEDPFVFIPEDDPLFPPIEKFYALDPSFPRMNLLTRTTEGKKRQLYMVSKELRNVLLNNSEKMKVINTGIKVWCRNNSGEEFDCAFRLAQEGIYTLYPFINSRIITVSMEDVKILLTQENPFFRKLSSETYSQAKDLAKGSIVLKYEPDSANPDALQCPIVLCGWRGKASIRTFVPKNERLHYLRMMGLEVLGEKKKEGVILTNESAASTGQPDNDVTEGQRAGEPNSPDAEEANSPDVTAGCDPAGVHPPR

C=CC(=O)N1C[C@H](c2ccc(Br)cc2)[C@@H]1C(=O)Nc1cccc2cccnc12
kinact/Ki: 67 M⁻¹ s⁻¹

— ChEMBL document CHEMBL6078631, “Covalent inhibitors meet epigenetics: New opportunities” (Eur J Med Chem, 2024)
